# Patent US8426448B2, “1,5-diphenyl-pyrrolidin-2-one compounds as CB-1 ligands” (Eli Lilly and Company, priority 2008, dated 2013)
# Where a name gives a salt, the structure may show the parent alone.
# Assays:
# Type in all cases: in vivo
# Male NIH Swiss mice = experiment: Forced swim test (FST); parameters: key to Dunett's Test (0.05) * against vehicle, # against Imipramine: * against vehicle; # against Imipramine; conditions: for Seconds of immobility: last 4 min of 6 min swim, n = 8; for Dunett's Test (0.05) * against vehicle, # against Imipramine: immobility time
# Source text: The forced swim test is a well established animal model for depression, anxiety and avolition (lack of motivation)(Porsolt, et al. Nature (1977) 266, 730) (J. M. Witkin et al., Trends Pharmacol Sci. 2005 26:609-17). It can also be used as a model for the treatment of negative symptoms of schizophrenia.
# Male NIH Swiss mice (Harlan Sprague-Dawley) are housed 12 mice/cage for 7-10 days prior to testing. On the day of testing, mice weighing 25-30 g, are brought to the testing room at least 1 hr. prior to dosing. Mice are dosed (p.o.) at 6-8 min. intervals with either vehicle (1% CMC/0.5% SLS/0.08% povidone/0.05 antifoam for CB1 inverse agonists) or test compound and put it into a clean cage (4 mice/cage).
# To test, mice are placed individually in clear plastic cylinders (about 10 cm diameter×25 cm height) filled to 6 cm with water at 22-25° C. for six min. The duration of immobility during the last 4 min. is recorded. A mouse is regarded as immobile when floating motionless or making only those movements necessary to keep its head above the water.
# The immobility time (in seconds) is analyzed by ANOVA using Dunnett's test. The minimum effective dose (MED) is considered to be the lowest dose of test compound at which a statistically significant decrease in the immobility time is observed versus the vehicle control.
# Dog oral bioavailability = conditions: plasma; fasted male beagle dog; IV 0.25 mg/kg, PO 1 mg/kg; Mean±SD, n=3; based on AUC0-24hr
# Protocol: (§1) Cohorts of three or four 250-450 gram male Sprague-Dawley rats or approximately 10 kg Beagle dogs (female or male) are used. […] Dogs are administered i.v. by cannulated cephalic vein and blood collections are by jugular vein. Animals are first dosed at 0.25 mg/kg i.v. and blood samples (0.2 mL) are then collected using EDTA as an anticoagulant at 0.0830, 0.25, 0.50, 1, 2, 4, 8, 12, 24, 48, 72, 96, and 120 hours. Next after at least two days and after 18-24 hours fasting, the animals are dosed at 1.0 mg/kg by oral gavage. During the course of a study the total of blood (ml) collected is not to exceed 1% of total body weight in grams. Should larger blood volumes be required, the sampled blood volume is replace with heparinized whole blood from a donor animal. When using a cross-over study design, rats receive a volume of heparinized whole blood following the final sample of each study day approximately equal to that removed during study.
# (§2) Compound plasma concentrations are measured by LC/MS/MS assays. Data are then analyzed using standard non-compartmental pharmacokinetic analysis. Oral bioavailability is calculated as: (AUC0-infinity,oral/AUC0-infinity,i.v.)×(Dose,i.v./Dose,oral)×100%
# Rat oral bioavailability = conditions: Sprague-Dawley, plasma, fasted male SD rats, IV 0.25 mg/kg (20% MEOP/80% water), PO 1 mg/kg (1% NaCMC/0.5% SLS/0.05% antifoam), based on AUC0-∞
# Protocol: as §1, §2
smiles,measurement,setting,value
"CC(C)(N[C@@H]1C[C@H](c2cccc(OC(F)(F)F)c2)N(c2ccc(C(F)(F)F)cc2)C1=O)c1cccc(C(F)(F)F)n1 [Example 11, (3R,5R)-3-[1-Methyl-1-(6-trifluoromethyl-pyridin-2-yl)-ethylamino]-5-(3-trifluoromethoxy-phenyl)-1-(4-trifluoromethyl-phenyl)-pyrrolidin-2-one]",minimum effective dose (MED) in forced swim test,"Male NIH Swiss mice; mice, p.o., Dunett's Test (0.05) statistically significant",3 mg/kg
"CC(C)(N[C@@H]1C[C@H](c2cccc(OC(F)(F)F)c2)N(c2ccc(C#N)cc2)C1=O)c1cccc(C(F)(F)F)n1 [Example 27, 4-[(3R,5R)-3-[1-Methyl-1-(6-trifluoromethyl-pyridin-2-yl)-ethylamino]-2-oxo-5-(3-trifluoromethoxy-phenyl)-pyrrolidin-1-yl]-benzonitrile]",Seconds of immobility,"Male NIH Swiss mice; 1 mg/Kg p.o., mice",170 s
same,"Dunett's Test (0.05) * against vehicle, # against Imipramine",Male NIH Swiss mice; 1 mg/Kg,#
same,Seconds of immobility,"Male NIH Swiss mice; 3 mg/Kg p.o., mice",128 s
same,"Dunett's Test (0.05) * against vehicle, # against Imipramine",Male NIH Swiss mice; 3 mg/Kg,*
same,Seconds of immobility,"Male NIH Swiss mice; 10 mg/Kg p.o., mice",80 s
same,"Dunett's Test (0.05) * against vehicle, # against Imipramine",Male NIH Swiss mice; 10 mg/Kg,*
same,duration of immobility in forced swim test,"Male NIH Swiss mice; mice, p.o., result in words",significantly reduce the duration of mobility in a dose dependent manner
"CC(C)(N[C@@H]1C[C@H](c2cccc(OC(F)(F)F)c2)N(c2ccc(C#N)cc2)C1=O)c1cccc(C(F)(F)F)n1 [Example 27HCl Salt, 4-[(3R,5R)-3-[1-methyl-1-(6-trifluoromethyl-pyridin-2-yl)-ethylamino]-2-oxo-5-(3-trifluoromethoxy-phenyl)-pyrrolidin-1-yl]-benzonitrile hydrochloride]",bioavailability,Dog oral bioavailability,33 ± 13%
same,bioavailability,Rat oral bioavailability,58 ± 8.6%
"CN(C)CCCN1c2ccccc2CCc2ccccc21 [Imipramine, reference compound]","Dunett's Test (0.05) * against vehicle, # against Imipramine",Male NIH Swiss mice; 15 mg/Kg,*
same,Seconds of immobility,"Male NIH Swiss mice; 15 mg/Kg, mice",80 s
